The target in the assay is T1, human 11β-HSD1 (Homo sapiens, UniProt P28845).
T1 construct: expressed in transfected cells; host or cells: CHO cells (microsomes)
Description: Inhibition of microsomal preparation of 11β-HSD1 (SPA, Biological Test Example 1). As to conditions: for inhibition at 0.111 µM: 111 nM; for IC50: microsomes from CHO cells overexpressing human 11β-HSD1, read-out: IC50 Range; for inhibition at 0.1 µM: 100 nM. The format is biochemical. A digest of the protocol:
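Microsomes from CHO cells overexpressing human 11β-HSD1 reduced [3H]cortisone (160 nM in substrate solution, with 2 mM NADPH, HEPES pH 7.4) for 90 min at rt after a 10 min compound preincubation. Compounds were run as 8-point half-log DMSO dilutions from 0.1 mM. 18β-glycyrrhetinic acid stopped the reaction, and anti-cortisol antibody SPA beads read [3H]cortisol.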

SMILES strings stand for the structures.

T1 sequence (P28845 whole entry): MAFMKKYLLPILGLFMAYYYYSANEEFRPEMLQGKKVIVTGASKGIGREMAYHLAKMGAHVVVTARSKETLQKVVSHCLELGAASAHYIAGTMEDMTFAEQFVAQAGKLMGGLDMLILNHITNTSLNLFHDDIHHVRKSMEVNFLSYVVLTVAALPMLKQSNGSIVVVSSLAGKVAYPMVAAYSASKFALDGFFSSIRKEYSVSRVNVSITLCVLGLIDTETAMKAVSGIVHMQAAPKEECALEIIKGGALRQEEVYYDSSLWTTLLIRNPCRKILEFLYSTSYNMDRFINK

Consider `CCOC(=O)CC1CC2(CCN(C(=O)CCc3ccccc3C(F)(F)F)CC2)c2c(Br)cccc21` (centres unmarked) [EXAMPLE 56, Ethyl 2-(7-bromo-1′-(3-(2-(trifluoromethyl)phenyl)propanoyl)-2,3-dihydrospiro[indene-1,4′-piperidine]-3-yl)acetate], for which at 0.111 µM the inhibition was 92.7% and the IC50 is less than 100 nM.
On the same counts, the results for `CC(C)(C)OC(=O)N1Cc2ccccc2C2(CCN(C(=O)CCc3ccccc3C(F)(F)F)CC2)C1` [EXAMPLE 57, tert-butyl 1′-(3-(2-(trifluoromethyl)phenyl)propanoyl)-1H-spiro[isoquinoline-4,4′-piperidine]-2(3H)-carboxylate] are 37.6% and 100 to 1000 nM.
In the case of `O=C(O)CC1CC2(CCN(C(=O)CCc3ccccc3C(F)(F)F)CC2)c2c(Br)cccc21` (centres unmarked) [EXAMPLE 58, 2-(7-bromo-1′-(3-(2-(trifluoromethyl)phenyl)propanoyl)-2,3-dihydrospiro[indene-1,4′-piperidine]-3-yl)acetic acid], the inhibition at 0.1 µM is 97.1%, the inhibition at 0.111 µM is 87.4% and the IC50 is less than 100 nM.
`O=C(CCc1ccccc1C(F)(F)F)N1CCC2(CC1)CNCc1ccccc12` [EXAMPLE 59, 1-(2,3-dihydro-1H-spiro[isoquinoline-4,4′-piperidine]-1′-yl)-3-(2-(trifluoromethyl)phenyl)propan-1-one]: the inhibition at 0.111 µM came to 66.6% and the IC50 is less than 100 nM.
`CS(=O)(=O)N1Cc2ccccc2C2(CCN(C(=O)CCc3ccccc3C(F)(F)F)CC2)C1` [EXAMPLE 60, 1-(2-(methylsulfonyl)-2,3-dihydro-1H-spiro[isoquinoline-4,4′-piperidine]-1′-yl)-3-(2-(trifluoromethyl)phenyl)propan-1-one]: the inhibition at 0.111 µM was found to be 92.6% and the IC50 was less than 100 nM.
On to `CN1C(=O)c2cccc(Cl)c2C12CCN(C(=O)CCc1ccccc1C(F)(F)F)CC2` [EXAMPLE 61, 7-chloro-2-methyl-1′-(3-(2-(trifluoromethyl)phenyl)propanoyl)spiro[isoindoline-1,4′-piperidin]-3-one], for which the inhibition at 0.1 µM amounted to 93.3%, at 0.111 µM the inhibition was 96.7% and the IC50 was less than 100 nM.
Regarding `COc1ccc2c(c1)CCNC21CCN(C(=O)CCc2ccccc2C(F)(F)F)CC1` [EXAMPLE 62, 1-(6-methoxy-3,4-dihydro-2H-spiro[isoquinoline-1,4′-piperidine]-1′-yl)-3-(2-(trifluoromethyl)phenyl)propan-1-one], testing at 0.111 µM gave an inhibition of 87.2% and the IC50 was less than 100 nM.
In the case of `COc1ccc2c(c1)CCNC21CCN(C(=O)CCc2ccccc2C)CC1` [EXAMPLE 63, 1-(6-methoxy-3,4-dihydro-2H-spiro[isoquinoline-1,4′-piperidine]-1′-yl)-3-o-tolylpropane-1-one], 0.111 µM produced 22.5% inhibition and the IC50 lay in the range of 100 to 1000 nM.
Taken in the same sequence, the figures for `O=C(CCc1ccccc1C(F)(F)F)N1CCC2(CC1)CC(O)c1cccc(Br)c12` (centres unmarked) [EXAMPLE 64, 1-(7-bromo-3-hydroxy-2,3-dihydrospiro[indene-1,4′-piperidine]-1′-yl)-3-(2-(trifluoromethyl)phenyl)propan-1-one] were 100% and less than 100 nM.
Take `O=C1NC2(CCN(C(=O)CCc3ccccc3C(F)(F)F)CC2)c2c(Cl)cccc21` [EXAMPLE 65, 7-chloro-1′-(3-(2-(trifluoromethyl)phenyl)propanoyl)spiro[isoindoline-1,4′-piperidin]-3-one]: the inhibition at 0.111 µM was determined as 87.7% and the IC50 is less than 100 nM.
On the same counts, the results for `NC1CC2(CCN(C(=O)CCc3ccccc3C(F)(F)F)CC2)c2c(Br)cccc21` (centres unmarked) [EXAMPLE 66, 1-(3-amino-7-bromo-2,3-dihydrospiro[indene-1,4′-piperidine]-1′-yl)-3-(2-(trifluoromethyl)phenyl)propan-1-one] are 92.1% and less than 100 nM.
For `O=C(CCc1ccccc1C(F)(F)F)N1CCC2(CC1)C(=O)Nc1ccccc12` [EXAMPLE 67, 1′-(3-(2-(trifluoromethyl)phenyl)propanoyl)spiro[indoline-3,4′-piperidin]-2-one], the inhibition at 0.1 µM stood at 100% and the IC50 was less than 100 nM.
On to `CNC(=O)N1Cc2ccccc2C2(CCN(C(=O)CCc3ccccc3C(F)(F)F)CC2)C1` [EXAMPLE 68, N-methyl-1′-(3-(2-(trifluoromethyl)phenyl)propanoyl)-1H-spiro[isoquinoline-4,4′-piperidine]-2(3H)-carboxamide], for which testing at 0.111 µM gave an inhibition of 81.5% and the IC50 was less than 100 nM.
`CN1C(=O)C2(CCN(C(=O)CCc3ccccc3C(F)(F)F)CC2)c2ccccc21` [EXAMPLE 69, 1-methyl-1′-(3-(2-(trifluoromethyl)phenyl)propanoyl)spiro[indoline-3,4′-piperidin]-2-one]: at 0.1 µM the inhibition was 93.5%, at 0.111 µM the inhibition was 93.8% and the IC50 was less than 100 nM.
As to `O=C1NC2(CCN(C(=O)CCc3ccccc3C(F)(F)F)CC2)c2c(Br)cccc21` [EXAMPLE 71, 7-bromo-1′-(3-(2-(trifluoromethyl)phenyl)propanoyl)spiro[isoindoline-1,4′-piperidin]-3-one], the inhibition at 0.111 µM turned out to be 93.9% and the IC50 was less than 100 nM.
On the same counts, the results for `O=C1NC2(CCN(C(=O)CCc3ccccc3C(F)(F)F)CC2)c2c(Cl)cc(Cl)cc21` [EXAMPLE 72, 5,7-dichloro-1′-(3-(2-(trifluoromethyl)phenyl)propanoyl)spiro[isoindoline-1,4′-piperidin]-3-one] are 82.4% and less than 100 nM.
Regarding `O=C(O)CC1CC2(CCN(C(=O)CCc3ccccc3C(F)(F)F)CC2)c2c(Cl)cccc21` (centres unmarked) [EXAMPLE 73, 2-(7-chloro-1′-(3-(2-(trifluoromethyl)phenyl)propanoyl)-2,3-dihydrospiro[indene-1,4′-piperidine]-3-yl)acetic acid], the inhibition at 0.1 µM is 96.6%, the inhibition at 0.111 µM was determined as 95.4% and the IC50 was less than 100 nM.
For `O=C(O)CC1CC2(CCN(C(=O)CCc3ccccc3Cl)CC2)c2c(Cl)cccc21` (centres unmarked) [EXAMPLE 74, 2-(7-chloro-1′-(3-(2-chlorophenyl)propanoyl)-2,3-dihydrospiro[indene-1,4′-piperidine]-3-yl)acetic acid], the inhibition at 0.111 µM turned out to be 89.5% and the half-inhibitory concentration (IC50) is less than 100 nM.
Consider `O=C(O)CC1CC2(CCN(C(=O)CCc3ccc(Cl)cc3Cl)CC2)c2c(Cl)cccc21` (centres unmarked) [EXAMPLE 75, 2-(7-chloro-1′-(3-(2,4-dichlorophenyl)propanoyl)-2,3-dihydrospiro[indene-1,4′-piperidine]-3-yl)acetic acid], for which testing at 0.111 µM gave an inhibition of 52.2% and the IC50 was less than 100 nM.
On the same counts, the results for `COC(=O)c1ccc2c(c1)C1(CCN(C(=O)CCc3ccccc3C(F)(F)F)CC1)C(=O)N2C` [EXAMPLE 76, 1-methyl-2-oxo-1′-(3-(2-(trifluoromethyl)phenyl)propanoyl)spiro[indoline-3,4′-piperidine]-5-carboxylate] are 60% and less than 100 nM.
Taken in the same sequence, the figures for `CN1C(=O)C2(CCN(C(=O)CCc3ccccc3C(F)(F)F)CC2)c2cc(C(N)=O)ccc21` [EXAMPLE 77, 1-methyl-2-oxo-1′-(3-(2-(trifluoromethyl)phenyl)propanoyl)spiro[indoline-3,4′-piperidine]-5-carboxamide] were 26.3% and 100 to 1000 nM.
On the same counts, the results for `CCN1C(=O)C2(CCN(C(=O)CCc3ccccc3C(F)(F)F)CC2)c2cc(C(=O)OC)ccc21` [EXAMPLE 78, Methyl 1-ethyl-2-oxo-1′-(3-(2-(trifluoromethyl)phenyl)propanoyl)spiro[indoline-3,4′-piperidine]-5-carboxylate] are 52.4% and less than 100 nM.
As for `CN1C(=O)C2(CCN(C(=O)CCc3ccccc3C(F)(F)F)CC2)c2cc(C#N)ccc21` [EXAMPLE 79, 1-methyl-2-oxo-1′-(3-(2-(trifluoromethyl)phenyl)propanoyl)spiro[indoline-3,4′-piperidine]-5-carbonitrile], the inhibition at 0.111 µM stood at 51.4% and the IC50 is 100 to 1000 nM.
Taken in the same sequence, the figures for `NC(=O)CC1CC2(CCN(C(=O)CCc3ccccc3C(F)(F)F)CC2)c2c(Cl)cccc21` (centres unmarked) [EXAMPLE 80, 2-(7-chloro-1′-(3-(2-(trifluoromethyl)phenyl)propanoyl)-2,3-dihydrospiro[indene-1,4′-piperidine]-3-yl)acetamide] were 95.1% and less than 100 nM.
On the same counts, the results for `CCOC(=O)CC1CC2(CCN(C(=O)N(CC)Cc3c(F)cccc3Cl)CC2)c2c(Br)cccc21` (centres unmarked) [EXAMPLE 81] are 59.2% and less than 100 nM.
Taken in the same sequence, the figures for `CCOC(=O)CC1CC2(CCN(C(=O)NCc3ccccc3OCC)CC2)c2c(Br)cccc21` (centres unmarked) [EXAMPLE 82, Ethyl 2-(7-bromo-1′-(2-ethoxybenzylcarbamoyl)-2,3-dihydrospiro[indene-1,4′-piperidine]-3-yl)acetate] were 28.6% and 100 to 1000 nM.
Turning to `O=C(O)CC1CC2(CCN(C(=O)NCc3cc(F)c(F)cc3F)CC2)c2c(Br)cccc21` (centres unmarked) [EXAMPLE 83, 2-(7-bromo-1′-(2,4,5-trifluorobenzylcarbamoyl)-2,3-dihydrospiro[indene-1,4′-piperidine]-3-yl)acetic acid], the inhibition at 0.111 µM is 10.9% and the IC50 fell in the range of 100 to 1000 nM.
On the same counts, the results for `CCOc1ccccc1CNC(=O)N1CCC2(CC1)CC(CC(=O)O)c1cccc(Br)c12` (centres unmarked) [EXAMPLE 84, 2-(7-bromo-1′-(2-ethoxybenzylcarbamoyl)-2,3-dihydrospiro[indene-1,4′-piperidine]-3-yl)acetic acid] are 42.6% and 100 to 1000 nM.
As for `O=C(NCc1ccccc1-c1ccccc1)N1CCC2(CC1)OCc1ccccc12` [EXAMPLE 85, N-(biphenyl-2-ylmethyl)-3H-spiro[isobenzofuran-1,4′-piperidine]-1′-carboxamide], the inhibition at 0.111 µM is 19.4% and the half-inhibitory concentration (IC50) lay in the range of 100 to 1000 nM.

What is called inhibition is the drop in the measured response relative to a control, in per cent. Lower therefore signals little suppression. As usually defined, the IC50 is the point on the concentration scale where inhibition reaches its midpoint.

The values are drawn from patent publication US8383629B2, “Inhibitors of 11β-hydroxysteroid dehydrogenase type 1” (Vitae Pharmaceuticals, Inc., priority 2008, dated 2013).
